# Laboratory results published in PubChem BioAssay AID1897 (NMMLSC, 2009).
# Activity calls are given as the source filed them. The rule behind the calls is not given here.
# Molecular target: Mitogen-activated protein kinase kinase kinase 2 (Homo sapiens) + Dual specificity mitogen-activated protein kinase kinase 5 (Homo sapiens) (UniProt Q9Y2U5+Q13163)
# Test: inhibitors of MEK5 binding to MEKK2, dose response, biochemical, bead multiplex flow cytometry, wildtype (AID 1897)
# Conditions: MEK5-MEKK2 PB1 binding; for Ki: measured here: Ki from binding competition
# Sequence of Mitogen-activated protein kinase kinase kinase 2 (Homo sapiens) + Dual specificity mitogen-activated protein kinase kinase 5 (Homo sapiens) (Q13163 whole entry, looked up): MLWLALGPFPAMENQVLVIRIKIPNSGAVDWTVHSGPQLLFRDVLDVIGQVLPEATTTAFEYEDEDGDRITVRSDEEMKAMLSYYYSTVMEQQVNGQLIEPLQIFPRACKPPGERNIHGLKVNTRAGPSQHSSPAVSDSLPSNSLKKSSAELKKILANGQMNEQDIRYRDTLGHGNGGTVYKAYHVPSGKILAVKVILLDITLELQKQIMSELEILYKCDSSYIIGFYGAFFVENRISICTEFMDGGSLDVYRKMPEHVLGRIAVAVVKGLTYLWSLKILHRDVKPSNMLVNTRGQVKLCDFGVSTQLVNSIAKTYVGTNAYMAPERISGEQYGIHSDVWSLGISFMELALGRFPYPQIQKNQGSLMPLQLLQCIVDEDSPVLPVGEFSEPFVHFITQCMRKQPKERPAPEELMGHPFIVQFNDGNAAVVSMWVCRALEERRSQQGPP
# Sequence of Mitogen-activated protein kinase kinase kinase 2 (Homo sapiens) + Dual specificity mitogen-activated protein kinase kinase 5 (Homo sapiens) (Q9Y2U5 whole entry, looked up): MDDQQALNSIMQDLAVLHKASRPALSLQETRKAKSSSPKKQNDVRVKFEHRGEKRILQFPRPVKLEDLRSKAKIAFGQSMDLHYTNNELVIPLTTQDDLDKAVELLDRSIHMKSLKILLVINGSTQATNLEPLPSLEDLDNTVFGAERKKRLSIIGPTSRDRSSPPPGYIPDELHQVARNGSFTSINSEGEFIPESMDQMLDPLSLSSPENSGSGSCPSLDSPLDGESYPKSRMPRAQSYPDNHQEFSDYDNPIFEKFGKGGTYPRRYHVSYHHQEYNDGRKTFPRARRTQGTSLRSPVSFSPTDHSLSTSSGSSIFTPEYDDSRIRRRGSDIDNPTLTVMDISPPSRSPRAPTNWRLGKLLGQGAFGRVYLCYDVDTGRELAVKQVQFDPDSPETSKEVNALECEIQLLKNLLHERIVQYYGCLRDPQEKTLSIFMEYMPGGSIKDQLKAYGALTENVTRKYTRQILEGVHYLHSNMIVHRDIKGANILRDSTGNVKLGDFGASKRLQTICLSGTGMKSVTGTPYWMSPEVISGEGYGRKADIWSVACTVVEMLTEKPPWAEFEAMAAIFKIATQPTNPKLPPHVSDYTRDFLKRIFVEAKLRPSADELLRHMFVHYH
Compound,EC50,Ki [µM]
O=C(OCC1O[C@@H](OC(=O)c2cc(O)c(O)c(O)c2)[C@@H](OC(=O)c2cc(O)c(O)c(O)c2)[C@@H](OC(=O)c2cc(O)c(O)c(O)c2)[C@@H]1OC(=O)c1cc(O)c(O)c(O)c1)c1cc(O)c(O)c(O)c1 (stereo not given in full),> 30 µM (inactive),
C=CCN1C(=O)/C(=C/c2ccc(-c3ccc(F)cc3)o2)SC1=S,2.06 µM,1.84
CCN1C(c2ccccc2)=C(c2ccccc2)S/C1=C/C=C1\SC(=S)N(C)C1=O,2.73 µM,2.44
CCN(CC)CCNC(=O)c1ccc(NC(=O)c2cn(-c3ccccc3)nc2-c2cccs2)cc1,5.94 µM,
CCCOc1ccc2c(c1)C(=NN=C(N)N)c1cc(OCCC)ccc1-2,4.59 µM,
CN(C)c1ccc(/C=C/C=C2/SC(=S)N(c3ccccc3)C2=O)cc1,0.95 µM,0.85
Brc1ccc(N=C/C=C/C=C/Nc2ccc(Br)cc2)cc1,> 30 µM (inactive),
O=C1c2ccccc2-c2onc3ccc(NCCCn4ccnc4)c1c23,> 30 µM (inactive),
CS(=O)(=O)N1N=C(c2ccccc2)CC1c1ccc2c(c1)OCO2 (stereo not given),> 30 µM (inactive),
N=C(N)SCc1cn(-c2ccccc2)nc1-c1ccc(Br)cc1,3.13 µM,
COc1ccccc1N1CCN(S(=O)(=O)c2ccc(Cl)s2)CC1,> 30 µM (inactive),
CCN1/C(=C/c2ccc3cc(C)ccc3[n+]2C)Sc2ccc3sccc3c21,> 30 µM (inactive),

# Other lines, results leading:
EC50,Ki [µM],Compound
> 30 µM (inactive),,O=C(Nc1ccc(C2=NCCN2)cc1)c1ccc(C(=O)Nc2ccc(C3=NCCN3)cc2)c([N+](=O)[O-])c1
3.89 µM,,COc1cc2nc(N3CCN(c4cc(C)ccc4C)CC3)nc(N)c2cc1OC
> 30 µM (inactive),,COc1ccc(CSc2n[nH]c(C)n2)cc1[N+](=O)[O-]
9.16 µM,8.2,CN1C(=CC=C2C=C(I)C(=O)C(I)=C2)C(C)(C)c2ccccc21
10.7 µM,9.61,Nc1cc2nc[nH]c2cc1N
> 30 µM (inactive),,CNc1nc(-c2c[nH]c3ccccc23)cs1
> 30 µM (inactive),,CCN1CCN(Cc2ccc(NC(=O)c3cc(NC(=O)c4cncc(-c5cccs5)c4)cc(OC)c3)cc2C(F)(F)F)CC1
1.75 µM,,C#CCOCCOCCOCCNc1nc(N2CCN(C(=O)C(Cc3cc4ccccc4[nH]3)n3cc(C(N)C(C)CC)nn3)CC2)nc(N2CCN(C(=O)C(Cc3cc4ccccc4[nH]3)n3cc(C(N)C(C)CC)nn3)CC2)n1 (stereo not given)
